Reference: BindingDB's records for patent US11708326 (Chemocentryx, 2023)

target: Programmed cell death 1 ligand 1 (Homo sapiens, UniProt Q9NZQ7); experiment: Enzyme-Linked Immunosorbent Assay ELISA
Method: 96 Well plates were coated with 1 μg/mL of human PD-L1 (obtained from R&D) in PBS overnight at 4° C. The wells were then blocked with 2% BSA in PBS (W/V) with 0.05% TWEEN-20 for 1 hour at 37° C. The plates were washed 3 times with PBS/0.05% TWEEN-20 and the compounds were serial diluted (1:5) in dilution medium and added to the ELISA plates. Human PD-1 and biotin 0.3 μg/mL (ACRO Biosystems) were added and incubated for 1 hour at 37° C. then washed 3 times with PBS/0.05% TWEEN-20. A second block was performed with 2% BSA in PBS (W/V)/0.05% TWEEN-20 for 10 min at 37° C. and was washed 3 times with PBS/0.05% TWEEN-20. Streptavidin-HRP was added for 1 hour at 37° C. then washed 3 times with PBS/0.05% TWEEN-20. TMB substrate was added and reacted for 20 min at 37° C. A stop solution (2 N aqueous H2SO4) was added. The absorbance was read at 450 nm using a micro-plate spectrophotometer.

Sequence of Programmed cell death 1 ligand 1 (Q9NZQ7 whole entry): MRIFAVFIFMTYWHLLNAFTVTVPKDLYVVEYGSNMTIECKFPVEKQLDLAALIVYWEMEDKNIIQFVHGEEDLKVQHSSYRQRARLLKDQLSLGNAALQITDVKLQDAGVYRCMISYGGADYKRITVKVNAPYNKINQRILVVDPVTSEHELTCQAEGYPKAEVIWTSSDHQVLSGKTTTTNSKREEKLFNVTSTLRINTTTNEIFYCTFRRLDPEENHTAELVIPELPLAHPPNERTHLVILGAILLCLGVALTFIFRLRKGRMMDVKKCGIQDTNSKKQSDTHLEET

Row | SMILES | IC50
1 | Cc1c(OCCCN2CCC(C)CC2)cccc1-c1cccc2c1CC[C@@H]2Oc1cc(OCc2cc(C#N)cc(C#N)c2)c(CN[C@H]2CCC(=O)NC2)cc1Cl [US11708326, Compound TABLE 1.296] | in the range around 252 nM
2 | N#Cc1cncc(COc2cc(O[C@H]3CCc4c(-c5cccc(OCCCN6CC(O)C6)c5Cl)cccc43)c(Cl)cc2CN2CCCC3(C2)NC(=O)NC3=O)c1 (stereo not given in full) [US11708326, Compound TABLE 1.137] | < 5 nM
3 | Cc1c(OCCCN2C(C)CCC2C)cccc1-c1cccc2c1CC[C@@H]2Oc1cc(OCc2cc(C#N)cc(C#N)c2)c(CN[C@H]2CCC(=O)NC2)cc1Cl (stereo not given in full) [US11708326, Compound TABLE 1.304] | < 5 nM
4 | CCOc1cc(O[C@H]2CCc3c(-c4cccc(OCCCN5CCC5(C)C)c4C)cccc32)c(Cl)cc1CN(C)CC(=O)O [US11708326, Compound TABLE 1.378] | in the range around 252 nM
5 | N#Cc1cncc(COc2cc(O[C@H]3CCc4c(-c5cccc(OCCCN6CC(F)C6)c5Cl)cccc43)c(Cl)cc2CN[C@@H]2CCCC[C@@H]2O)c1 [US11708326, Compound TABLE 1.92] | < 5 nM
6 | N#Cc1cncc(COc2cc(O[C@H]3CCc4c(-c5cccc(OCCCN6CC7(CC(O)C7)C6)c5Cl)cccc43)c(Cl)cc2CNC[C@@H]2CCC(=O)N2)c1 [US11708326, Compound TABLE 1.164] | < 5 nM
7 | Cc1c(OCCCN2[C@H](C)CC[C@H]2C)cccc1-c1cccc2c1CC[C@@H]2Oc1cc(OCc2cc(C#N)cc(C#N)c2)c(CN[C@H]2CCC(=O)NC2)cc1Cl [US11708326, Compound TABLE 1.334] | < 5 nM
8 | CCOc1cc(NC2CCc3c(-c4cccc(OCCCN5CCC(F)CC5)c4C)cccc32)c(Cl)cc1CN[C@@H](CO)C(=O)O (stereo not given in full) [US11708326, Compound TABLE 1.117] | in the range around 252 nM
9 | Cc1c(OCCCN2CCCC[C@@H]2C)cccc1-c1cccc2c1CC[C@@H]2Oc1cc(OCc2cc(C#N)cc(C#N)c2)c(CN[C@H]2CCC(=O)NC2)cc1Cl [US11708326, Compound TABLE 1.315] | < 5 nM
10 | Cc1c(OCCCN2CCCC2C(C)C)cccc1-c1cccc2c1CC[C@@H]2Oc1cc(OCc2cc(C#N)cc(C#N)c2)c(CN[C@H]2CCC(=O)NC2)cc1Cl (stereo not given in full) [US11708326, Compound TABLE 1.305] | in the range around 252 nM
11 | Cc1c(OCCCN2[C@H](C)CC[C@@H]2C)cccc1-c1cccc2c1CC[C@@H]2Oc1cc(OCc2cc(C#N)cc(C#N)c2)c(CN[C@H]2CCC(=O)NC2)cc1Cl [US11708326, Compound TABLE 1.333] | < 5 nM
12 | CCOc1cc(O[C@H]2CCc3c(-c4cccc(OCCCN5CCC5(C)C)c4C)cccc32)c(Cl)cc1CNCCC(=O)OC(C)C [US11708326, Compound TABLE 1.393] | in the range around 252 nM
13 | Cc1c(OCCCN2CC[C@@H](O)[C@H](F)C2)cccc1-c1cccc2c1CC[C@@H]2Oc1cc(OCc2cncc(C#N)c2)c(CN[C@H](C(=O)O)[C@@H](C)O)cc1Cl [US11708326, Compound TABLE 1.31] | in the range around 252 nM
14 | Cc1c(OCCCN2[C@H](C)CCC[C@@H]2C)cccc1-c1cccc2c1CC[C@@H]2Oc1cc(OCc2cc(C#N)cc(C#N)c2)c(CN[C@H]2CCC(=O)NC2)cc1Cl [US11708326, Compound TABLE 1.298] | in the range around 252 nM
15 | Cc1c(OCCCN2[C@@H](C)CC[C@@H]2C)cccc1-c1cccc2c1CC[C@@H]2Oc1cc(OCc2cc(C#N)cc(C#N)c2)c(CN[C@H]2CCC(=O)NC2)cc1Cl [US11708326, Compound TABLE 1.335] | < 5 nM
16 | CC(CO)(NCc1cc(Cl)c(O[C@H]2CCc3c(-c4cccc(OCCCN5CCCCC5)c4Cl)cccc32)cc1OCc1cncc(C#N)c1)C(=O)O (stereo not given in full) [US11708326, Compound TABLE 1.130] | < 5 nM
17 | Cc1c(OCCCN2CCC(F)(F)CC2)cccc1-c1cccc2c1CC[C@@H]2Oc1cc(OCc2cncc(C#N)c2)c(CN[C@H](C(=O)O)[C@@H](C)O)cc1Cl [US11708326, Compound TABLE 1.18] | in the range around 252 nM
18 | N#Cc1cncc(COc2cc(O[C@H]3CCc4c(-c5cccc(OCCCN6CC7(CC(O)C7)C6)c5Cl)cccc43)c(Cl)cc2CNC[C@H]2CCC(=O)N2)c1 [US11708326, Compound TABLE 1.165] | < 5 nM
19 | Cc1c(OCCCN2CC[C@H](O)[C@H](F)C2)cccc1-c1cccc2c1CC[C@@H]2Oc1cc(OCc2cncc(C#N)c2)c(CN[C@H](C(=O)O)[C@@H](C)O)cc1Cl [US11708326, Compound TABLE 1.34] | < 5 nM
20 | Cc1c(OCCCN2CCC2(C)C)cccc1-c1cccc2c1CC[C@@H]2Oc1cc(OCc2cc(C#N)cc(C#N)c2)c(CN[C@H]2CCC(=O)NC2)cc1Cl [US11708326, Compound TABLE 1.323] | < 5 nM
